Experimental data taken from US11866695B2, “Methods and systems and related compositions for mixtures separation with a solid matrix” (CALIFORNIA INSTITUTE OF TECHNOLOGY, priority 2019, dated 2024).

Assays:
[1] = test system: λ phage DNA; experiment: Zymo Quick-DNA/RNA MagBead extraction with air dry replaced by TPW, LAMP; assay type: biochemical; settings: 10× dilution of eluent into LAMP
Procedure: LAMP reactions contained the following concentrations of reagents: 1× Isothermal Amplification Buffer (20 mM Tris-HCl pH 8.8, 10 mM (NH4)2SO4, 50 mM KCl, 5 mM MgSO4, 0.1% Tween-20, B0537S, NEB, Ipswich, Mass., USA), an additional 2 mM MgSO4 (B1003S, NEB), 1.4 mM deoxynucleotide mix (N0447L or N0446S, NEB), […] Invitrogen Syto-9 (S34854, Thermo Fisher Scientific), […] Invitrogen bovine serum albumin (15561020, Thermo Fisher Scientific), 320 U/mL WarmStart Bst 2.0 (M0538L, NEB), and were supplemented with nuclease-free water (not DEPC-Treated, 4387936, Thermo Fisher Scientific) up to 10 μL. LAMP primers (Integrated DNA Technologies (IDT), Coralville, Iowa, USA) were designed, ordered, and added at NEB's recommended concentrations of […] FIP/BIP, 0.2μM F3/B3, and […] LoopF/B.
Each 96-well plate was sealed and briefly spun. Heating and real-time imaging were performed on the Bio-Rad CFX-96 Touch Real-Time PCR Detection System (1855195, Bio-Rad). Each 96-well plate was cooled to 12° C. for 2 min, held at 68° C. for 47 min with 35-second fluorescence read intervals, and a melt-curve analysis was performed. For the E. coli DNA dilution experiment, the 68° C. step was held for 105 min. Time-to-positive (TTP) was determined when the software's automated baseline corrected fluorescence reached 1000 RFU.
The Zymo Quick-DNA/RNA Viral MagBead (R2140) was tested. […]

[2] = test system: LAMP spiked with 5×104 copies λ phage DNA; experiment: LAMP reaction inhibition by dilutions of NA extraction kit buffers; assay type: biochemical; settings: for Avg TTP: 9 replicates, non-detects assigned 46.7 min
Procedure: LAMP primers (Integrated DNA Technologies (IDT), Coralville, Iowa, USA) were designed, ordered, and added at NEB's recommended concentrations of […] FIP/BIP, 0.2μM F3/B3, and […] LoopF/B.
Each 96-well plate was sealed and briefly spun. […] Time-to-positive (TTP) was determined when the software's automated baseline corrected fluorescence reached 1000 RFU.
Confidence intervals were calculated assuming the populations to be normally distributed and using a t statistic. For buffer inhibition experiments, statistical analysis was performed by a 1-tailed unequal variance t-test (N=9) comparing the water condition (control) to each buffer concentration (H1: the mean is delayed). For the subsequent experiments, a 2-tailed unequal variance t-test (H1: the means are different) was used. […] Although this approach introduces some bias into the analysis, it is believed this is the best representation for handling non-detects (other alternatives include excluding the non-detects or assigning non-detect values to the average of those that amplified).
These two commercial kits in particular were chosen because they both utilize minimal protocols (lysis, wash, elute) with no added steps (e.g. bacterial pellet spins, proteinase K, lysozyme, DNase/RNase, filtration, etc.). Specifically, an experiment was conducted to identify the concentration at which each buffer inhibits qPCR and LAMP.

In the case of CCCCCCCCCCCO [1-undecanol], the TTP improvement [1] is reported as 0.7 min.
CCO [Ethanol, ethanol] was tested, and the “Avg TTP” value ([2]; 0.03% buffer in LAMP) was 6.4 min, the ΔTTP ([2]; 0.03% buffer vs water condition (0%)) was 0.1 min and the “Avg TTP” value ([2]; 0.1% buffer in LAMP) was 6.5 min. The ΔTTP ([2]; 0.1% buffer vs water condition (0%)) was 0.1 min, the “Avg TTP” value ([2]; 0.32% buffer in LAMP) was 6.6 min and the ΔTTP ([2]; 0.32% buffer vs water condition (0%)) was 0.2 min. The “Avg TTP” value ([2]; 1% buffer in LAMP) was 6.9 min, the ΔTTP ([2]; 1% buffer vs water condition (0%)) was 0.5 min and the “Avg TTP” value ([2]; 3.2% buffer in LAMP) was 9.7 min. The ΔTTP ([2]; 3.2% buffer vs water condition (0%)) was 3.3 min, the “Avg TTP” value ([2]; 10% buffer in LAMP) was 46.7 min and the ΔTTP ([2]; 10% buffer vs water condition (0%)) was 40.3 min.
